Results taken from patent US5459064A, “Protease” (Shionogi & Co., Ltd., priority 1990, dated 1995).
Residues, ends and D or L forms follow the SMILES beside them. *: point of attachment. Cbz = O=C(OCc1ccccc1)*; CH2Cl = ClC*

Tests used:
[1] = target: BLase (the present enzyme) (Bacillus licheniformis, UniProt P80057); test: Effect of inhibitors on the present enzyme; type: biochemical, Bacillus licheniformis ATCC No. 14580
[2] = test system: oxidized insulin B chain; test: Cleavage of oxidized insulin B chain, HPLC peptide mapping; type: biochemical; details: 50 mM ammonium bicarbonate pH 7.8, enzyme/substrate 1/100 (W/W)

Sequence of BLase (the present enzyme) (P80057 95-316): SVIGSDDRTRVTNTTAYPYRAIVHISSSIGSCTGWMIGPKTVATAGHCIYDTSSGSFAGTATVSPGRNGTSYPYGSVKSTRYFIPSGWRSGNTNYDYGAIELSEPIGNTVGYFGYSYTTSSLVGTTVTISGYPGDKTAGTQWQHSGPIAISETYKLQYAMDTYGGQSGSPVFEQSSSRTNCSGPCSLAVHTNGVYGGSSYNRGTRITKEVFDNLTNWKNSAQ

Compound | Inhibition of the present enzyme [1] | Inhibitory effect after addition of metal ions [1] | Maximum inhibition ratio [1] | Action on oxidized insulin B chain (peptide mapping) [2]
O=C(O)CN(CCN(CC(=O)O)CC(=O)O)CC(=O)O [EDTA] | partially inhibited | completely nullified | approximately 72% | 
CC(C)C[C@H](NC(=O)[C@H](Cc1ccccc1)NC(=O)OCc1ccccc1)C(=O)N[C@@H](CCC(=O)O)C(=O)CCl [Z-Phe Leu Glu CH2 Cl] (Cbz-Phe-Leu-Glu-CH2Cl) | completely inhibited |  |  | 
V8 protease: Serine protease from the V8 strain of Staphylococcus aureus, cleaves at the carboxyl terminal of glutamic acid residues |  |  |  | the peptide bonds at the carboxyl termini of the glutamic acid residues were cleaved
